We go through five compounds from US20250154121A1, “CYCLIC(ALKYL)(AMINO)ALKOXY-SUBSTITUTED ARYL-PYRONE COMPOUND AND USE THEREOF” (priority 2022, published 2025).

Series [1] has as its system Influenza A (H1N1) virus FM1 strain. The experiment in a line: Mouse pneumonia model infected with influenza A (H1N1) virus FM1 strain (lung index). The series is classed as in vivo, ICR mice. As to the method:
ICR mice were taken and randomly divided into: normal control group, model control group, ribavirin control group, compound 4, compound F1, compound F2, and compound F3 according to their weight class, and each drug was given in two dosage groups (10 mice in each group). Except for the normal control group, mice were slightly anesthetized with ether and infected with 15 LD50 H1N1 influenza virus liquid FM1 strain by nasal drops (30 μl per animal). The administration was started on the day of infection at 0.2 ml/10 g by gavage each time once a day for 4 days, and the normal control and model control groups were gavaged with distilled water under the same conditions. The mice were weighed and dissected on Day 5, and the lung was weighed to calculate lung index and lung index inhibition. The results were statistically processed using t-test for comparison between groups.
(§1) ICR mice were taken and randomly divided by weight class: normal control group, model control group, oseltamivir control group, compound 4, compound F4, compound F5, compound 5, and compound 7 according to their weight class, and each drug was given in two dosage groups (10 mice in each group). Except for the normal control group, mice were slightly anesthetized with ether and infected with 15 LD50 H1N1 influenza virus liquid (FM1/PR8 strain) by nasal drops (30 μl per each animal). The administration was started on the day of infection at 0.2 ml/10 g by gavage each time once a day for 4 days, and the normal control and model control groups were gavaged with distilled water under the same conditions. The mice were weighed and dissected on Day 5, and lung was weighed to calculate lung index and lung index inhibition. The results were statistically processed using t-test for comparison between groups.
(§2) ICR mice were taken and randomly divided into 9 groups according to the body weight: a normal control group, model control group, oseltamivir control group, and two dosage groups of Compound 9, Compound 12 and Compound 2, 10 mice in each group. Except the normal control group, mice were slightly anesthetized with ether and infected with 15 LD50 H1N1/PR8 influenza virus liquid by nasal drops at 30 μl per mouse. The administration was started on the day of infection, at 0.2 ml/10 g each time by gavage once a day for 4 days, and the normal control and model control groups were gavaged with distilled water under the same conditions. The mice were weighed and dissected on Day 5, and lungs were weighed to calculate lung index and lung index inhibition. The results were statistically processed using t-test for comparison between groups.

In series [2] the test system is Influenza A (H1N1) virus PR8 strain. The series is described as follows: Mouse pneumonia model infected with influenza A (H1N1) virus PR8 strain (lung index). The series is classed as in vivo, ICR mice. How it is done:
as §1, §2

In series [3] the test system is Sendai strain of parainfluenza virus. Type of series: in vivo.
For series [4], the system named is Human Coronavirus 229E (HCoV-229E). The experiment in a line: animal or person. Type of series: in vivo.
The nature of series [5]: Acute toxicity test in mice (single gavage, 14-day observation). The series is classed as in vivo. How it is done:
Seventy ICR mice, weighing 17-21 g, were randomly divided into 7 groups according to fasting body weight: a normal control group and 6 dose groups of 475, 633, 844, 1125, 1500 and 2000 mg of the test drug (compound 4)/kg, 10 mice in each group, 50/50 male and female. After fasting for about 15 h, each dosing group was administered once by gavage in a volume of 40 ml/kg, and the control group was gavaged with an equal volume of 0.5% sodium carboxymethylcellulose solution once/day, and the animals were observed continuously for 14 days after administration of the drug to observe the death of the animals.
Thirty ICR mice, weighing 17-21 g, were randomly divided into three groups according to their fasting body weight: a normal control group and 2000 mg and 4000 mg of test drug (Compound 12)/kg dose group, 10 mice in each group, 50/50 male and female. After fasting for about 15 h, each dosing group was given the drug once by gavage in a volume of 40 ml/kg, and the control group was given an equal volume of 0.5% sodium carboxymethylcellulose solution by gavage once/day, and the deaths of the animals were observed continuously for 14 days after the administration of the drug.

The next series relates to human coronavirus OC43. The series is classed as in vivo. The settings on record: Table 6 (Example 17); 90 mg/kg/d gavage for 4 days.
The mark [6] stands for this setting: Table 13 (Example 25), 7.5 mg/kg/d gavage for 4 days.
[7] abbreviates: Table 13 (Example 25), 15 mg/kg/d gavage for 4 days.
The mark [8] stands for this setting: Table 12 (Example 25), 7.5 mg/kg/d gavage for 4 days.
Where [9] appears, read: Table 12 (Example 25), 15 mg/kg/d gavage for 4 days.
Where [10] appears, read: Table 11 (Example 24), 7.5 mg/kg/d gavage for 4 days.
The mark [11] stands for this setting: Table 11 (Example 24), 15 mg/kg/d gavage for 4 days.
The mark [12] stands for this setting: Table 3 (Example 14), 27.5 mg/kg gavage once a day for 4 days.
Setting [13] is: Table 7 (Example 18), 82.5 mg/kg/d gavage for 4 days.
The mark [14] stands for this setting: Table 11 (Example 24), 82.5 mg/kg/d gavage for 4 days.

Where two headings read alike, the source gives them in different places.

With `COc1ccc(-c2coc3cc(OCCNC4CC4)ccc3c2=O)cc1` [Compound 2], the inhibition rate % in series [1] (setting [6]) is recorded as 26.60%; in series [1] (setting [7]), 72.90%; in series [2] (setting [8]), 99.05%; in series [2] (setting [9]), 60.90%; in series [3] (setting [10]), −18.32%; in series [3] (setting [11]), 3.27%. Moreover, the lung index in series [1] (setting [6]) is on record as 0.77 ± 0.074 Lung weight * 100/body weight; in series [1] (setting [7]), 0.73 ± 0.060 Lung weight * 100/body weight; in series [2] (setting [8]), 0.70 ± 0.110 Lung weight * 100/body weight; in series [2] (setting [9]), 0.74 ± 0.091 Lung weight * 100/body weight; in series [3] (setting [10]) it was 0.86 ± 0.04 Lung weight * 100/body weight; in series [3] (setting [11]), 0.84 ± 0.07 Lung weight * 100/body weight.
Consider `NC(=O)c1ncn([C@@H]2O[C@H](CO)[C@@H](O)[C@H]2O)n1` [Ribavirin, ribavirin, reference compound], for which the inhibition in vivo at 82.5 mg/kg in series [1] (Influenza A virus, H1N1, po, 96 h, Table 1 (Example 13), 82.5 mg/kg gavage once a day for 4 days, read-out: inhibition rate (%)) was found to be 49.6%. Moreover, the lung index is 0.96 ± 0.16 in series [1] (Table 1 (Example 13), 82.5 mg/kg gavage once a day for 4 days); 0.84 ± 0.10 in series [2] (setting [12]); 0.70 ± 0.03 lung weight/100 g body weight in series [3] (setting [13]); 0.77 ± 0.04 Lung weight * 100/body weight in series [3] (setting [14]). The “inhibition rate %” value in series [2] (setting [12]) was determined as 58.89%; in series [3] (setting [13]), 42.06%; in series [3] (setting [14]), 57.66%.
Consider `CN(CCOc1ccc2c(=O)c(-c3ccccc3)coc2c1)C1CC1` [Compound 9], for which the inhibition rate % in series [1] (setting [6]) was found to be 79.57%; in series [1] (setting [7]), 84.63%; in series [2] (setting [8]) it was 58.71%; in series [2] (setting [9]), 91.64%; in series [3] (setting [10]), 40.51%; in series [3] (setting [11]), 55.59%. Besides, the lung index is on record as 0.72 ± 0.069 Lung weight * 100/body weight in series [1] (setting [6]); 0.71 ± 0.052 Lung weight * 100/body weight in series [1] (setting [7]); 0.74 ± 0.046 Lung weight * 100/body weight in series [2] (setting [8]); 0.71 ± 0.060 Lung weight * 100/body weight in series [2] (setting [9]); 0.81 ± 0.10 g lung weight × 100/g body weight in series [4] (Table 10 (Example 23), 7.5 mg/kg/d gavage for 4 days); 0.79 ± 0.05 Lung weight * 100/body weight in series [3] (setting [10]). Also, the lung index in series [3] (setting [11]) is reported as 0.77 ± 0.05 Lung weight * 100/body weight. Also, in series [4] (Human coronavirus 229E, in Mus musculus, po, 96 h, Table 10 (Example 23), 7.5 mg/kg/d gavage for 4 days, read-out: inhibition rate (%)), the inhibition in vivo at 7.5 mg/kg/day was 46.5%.
In the case of `CC(C)N(CCOc1ccc2c(=O)c(-c3ccccc3)coc2c1)C1CC1` [Compound 12], the inhibition rate % in series [1] (setting [6]) turned out to be 70.82%; in series [1] (setting [7]), 93.59%; in series [2] (setting [8]) it was 63.78%; in series [2] (setting [9]), 76.54%; in series [3] (setting [10]), 57.49%; in series [3] (setting [11]), 61.91%. Also, the lung index in series [1] (setting [6]) is 0.73 ± 0.070 Lung weight * 100/body weight; in series [1] (setting [7]), 0.71 ± 0.042 Lung weight * 100/body weight; in series [2] (setting [8]) it was 0.74 ± 0.091 Lung weight * 100/body weight; in series [2] (setting [9]), 0.72 ± 0.076 Lung weight * 100/body weight; in series [4] (Table 14 (Example 26), 7.5 mg/kg/d gavage for 4 days) it was 0.86 ± 0.04 g lung weight × 100/g body weight; in series [4] (Table 14 (Example 26), 15 mg/kg/d gavage for 4 days) it was 0.82 ± 0.07 g lung weight × 100/g body weight. In addition, the lung index in series [3] (setting [10]) was 0.77 ± 0.04 Lung weight * 100/body weight; in series [3] (setting [11]), 0.76 ± 0.03 Lung weight * 100/body weight. Besides, the inhibition in vivo at 7.5 mg/kg/day in series [4] (Human coronavirus 229E, in Mus musculus, po, 96 h, Table 14 (Example 26), 7.5 mg/kg/d gavage for 4 days, read-out: inhibition rate (%)) was determined as 39.8%. In addition, the inhibition in vivo at 15 mg/kg/day in series [4] (Human coronavirus 229E, in Mus musculus, po, 96 h, Table 14 (Example 26), 15 mg/kg/d gavage for 4 days, read-out: inhibition rate (%)) was found to be 68.4%. Moreover, in series [5] (2000 and 4000 mg of the drug/kg single gavage, 14 days observation), the animal deaths result is “No animals died”. Moreover, the “maximum concentration that could be administered by gavage, with no death of the animals” value in series [5] (acute toxicity, mice) is listed as 4000 mg/kg.
`CCN(CC)CCCC(C)Nc1ccnc2cc(Cl)ccc12` (centres unmarked) [Chloroquine, chloroquine phosphate, reference compound]: the inhibition in vivo at 90 mg/kg/day in series [4] (Human coronavirus 229E, in Mus musculus, po, 96 h, read-out: inhibition rate (%), Table 4 (Example 15), 90 mg/kg/d gavage for 4 days) worked out at 31.3%; in series [4] (Human coronavirus 229E, in Mus musculus, po, 96 h, read-out: inhibition rate (%), Table 5 (Example 16), 90 mg/kg/d gavage for 4 days), 56.2%; in series [4] (Human coronavirus 229E, in Mus musculus, po, 96 h, read-out: inhibition rate (%), Table 10 (Example 23), 90 mg/kg/d gavage for 4 days), 52.9%; in series [4] (Human coronavirus 229E, in Mus musculus, po, 96 h, read-out: inhibition rate (%), Table 14 (Example 26), 90 mg/kg/d gavage for 4 days), 62.8%. Also, the lung index in series [4] (Table 4 (Example 15), 90 mg/kg/d gavage for 4 days) is recorded as 0.78 ± 0.04 g lung weight × 100/g body weight; in series [4] (Table 5 (Example 16), 90 mg/kg/d gavage for 4 days), 0.70 ± 0.04 g lung weight × 100/g body weight; in series [4] (Table 10 (Example 23), 90 mg/kg/d gavage for 4 days) it was 0.80 ± 0.02 g lung weight × 100/g body weight; in series [4] (Table 14 (Example 26), 90 mg/kg/d gavage for 4 days) it was 0.83 ± 0.05 g lung weight × 100/g body weight; in the series with human coronavirus OC43 it was 0.80 ± 0.05 g lung weight × 100/g body weight. For the same compound, in the series with human coronavirus OC43, the “inhibition rate %” value is 42.72%.
